Results: patent US20090069324A1, “CHEMICAL INHIBITORS OF BFL-1 AND RELATED METHODS” (The Burnham Institute, priority 2007, published 2009)
pIC50: −log10 of the molar value. Several values for one entry are separate records, joined by “and”; a condition that tells them apart may be missing. Equal entries are not always repeated.

Columns and labels:
[1] = biological target: T1, Bfl-1 (Homo sapiens, UniProt Q16548); test: Bfl-1 fluorescence polarization assay (FPA/FP), competition with FITC-Bid BH3 peptide; type: binding; settings: for IC50: single values listed before the Avg, read-out: Bfl-1 FPA IC50 (uM), individual determinations; for Bfl-1 FP assay, activity in words: Bfl-1/FITC-Bid
T1 construct: lacking their C-terminal transmembrane domains (approximately last 20 amino-acids); made in house; host or cells: XL-1 Blue cells (E. coli), pGEX 4T-1
T1 sequence (Q16548 1-155 limits assumed): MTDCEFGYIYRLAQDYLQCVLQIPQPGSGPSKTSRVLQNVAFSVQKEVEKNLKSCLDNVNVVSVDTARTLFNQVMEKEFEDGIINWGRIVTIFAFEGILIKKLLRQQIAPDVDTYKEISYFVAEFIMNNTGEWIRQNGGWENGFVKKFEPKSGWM
Method: Fluorescence polarization assays (FPA). To determine the binding affinity of anti-apoptotic Bcl-2 polypeptides to FITC-conjugated Bid BH3 peptide, fluorescence polarization assays (FPAs) were performed according to published procedures (Zhai et al., Biochem. J. 376:229-236 (2003)). […] Fluorescence polarization was measured after 10 min using an Analyst™ AD Assay Detection System (LJL Biosystem, Sunnyvale, Calif.) in phosphate-buffered saline (PBS) (pH 7.4). The IC50 determinations were performed using GraphPad Prism software (GraphPad, Inc., San Diego, Calif.).
Competition assays. Using the same procedure outlined above, 100 nM of GST-Bfl-1 protein were incubated with the compounds at 50 μM concentration for 30 min. Then, 5 nM of FITC-Bid BH3 peptide was added. Fluorescence polarization was measured after 10 min. […]

[2] = biological target: T1, Bfl-1; test: Bfl-1 TR-FRET assay (FITC-Bid, Tb-anti-GST antibody); type: binding; settings: for IC50: single values listed before the Avg, read-out: Bfl-1 TR-FRET IC50 (uM), individual determinations; for Bfl-1 TR-FRET assay, activity in words: Bfl-1/FITC-Bid
Method: TR-FRET assay. For confirmation of FPA results, a TR-FRET assay utilizing terbium- (Tb-) labeled anti-GST antibody (Th-Ab) was developed. […] The reaction mixture was preincubated for 1 h, and TR-fluorescence (TRF) was measured on an M5 plate reader (Molecular Devices) using excitation at 340 nm and emission at […]. The measurements were averaged from 5 readings during 1 ms after an initial delay 0.1 ms. TR-FRET signal was calculated as the ratio of TR-Fluorescence at 520 nm to TR-Fluorescence at […].
For Bfl-1 TR-FRET assays, Bfl-1 protein and FITC-Bid peptide (FITC-Ahx-[…]) (SEQ ID NO: 1) were utilized. Terbium-anti-GST antibody (Tb-anti-GST Ab) was obtained from Invitrogen (San Diego Calif.). The assay buffer contained 25 mM Bis-Tris, pH 7.0, 1 mM TCEP, and 0.005% Tween 20. The Tb-Ab buffer contained 2.5 nM Tb-anti-GST antibody in assay buffer. The Bfl-1/Th-Ab working solution contained 5 nM Bfl-1 in Th-Ab assay buffer. The solution was prepared fresh and kept on ice prior to use. The FITC-Bid working solution contained 5.6 nM FITC-Bid in assay buffer.
For the Bfl-1 TR-FRET dose-response screening protocol, dose-response curves contained 10 concentrations of compounds obtained using 2-fold serial dilution. Compounds were serially diluted in 100% DMSO, and then diluted with water to 10% final DMSO concentration. A 4 μl aliquot of compounds in 10% DMSO was transferred into columns 3-22 of Greiner 384-well white small-volume plates. Columns 1-2 and 23-24 contained 4 μL of 10% DMSO.
Columns 1-2 were reserved for positive controls, and 8 μL of Th-Ab buffer was added using a WellMate bulk dispenser (Matrix). An aliquot of 8 μL of Bfl-1/Th-Ab working solution was added to columns 3-24 of Greiner 384 well white plates using a WellMate bulk dispenser (Matrix). Columns 23-24 represented negative control wells. Plates were incubated for 1 h at 4° C. An 8 μL aliquot of freshly prepared FITC-Bid working solution was added to the whole plate using WellMate bulk dispenser (Matrix). Plates were incubated for 4 h at room temperature protected from direct light. Fluorescence was measured on the M5 plate reader (excitation: 340 nm, emission: 490 and 520 nm, cutoff: 475 and 515 nm, respectively) in Time Resolved (TR) mode with signal integrated for 1 ms after initial delay of 0.1 ms. TR-FRET signal was calculated as the ratio of TR-Fluorescence at 520 nm to TR-Fluorescence at 490 nm. Data analysis was performed using a sigmoidal dose-response equation through non-linear regression.

[3] = Tables 7-8, Avg where the cell lists several determinations, read-out: Bfl-1 FPA IC50
[4] = Tables 7-8, Avg where the cell lists several determinations, read-out: Bfl-1 TR-FRET IC50
[5] = Tables 7-8, Avg where the cell lists several determinations
[6] = Tables 3-5, read-out: Bfl-1 TR FRET IC50
[7] = Tables 3-5, read-out: Bfl-1 FP IC50

CC(C)c1nnc(NC(=O)CCS(=O)(=O)c2nc(-c3cccs3)cc(C(F)(F)F)n2)s1 [ASN05990586]
pIC50 [1, 3]: 4.95 | pIC50 [2, 4]: 5.28

COCC(C)NC(=O)CCS(=O)(=O)c1nc(-c2ccc(OC)cc2)cc(C(F)(F)F)n1 (centres unmarked) [BAS03664947]
pIC50 [1, 3]: 4.69 | pIC50 [2, 4]: 4.71

COc1ccc(N2C(=O)C(Cl)=C(Nc3c(C)n(C)n(-c4ccccc4)c3=O)C2=O)cc1 [Compound 3453-0809]
pIC50 [1, 3]: 4.09 | pIC50 [2, 4]: < 4.00

CCOC(=O)CS(=O)(=O)c1nc(-c2ccccc2)cc(C(F)(F)F)n1 [Compound 7663066]
pIC50 [1, 3]: 5.33 | IC50 ([1]; Tables 7-8): 2.63 µM and 2.4 µM and 5.42 µM and 8.1 µM | pIC50 [2, 4]: 5.54 | IC50 ([2]; Tables 7-8): 1.18 µM and 4.63 µM

CCOC(=O)CCS(=O)(=O)c1nc(-c2ccccc2)cc(C(F)(F)F)n1 [Compound 7914223]
pIC50 [1, 3]: 5.10 | pIC50 [2, 4]: 5.40

Cc1cc(NC(=O)CCS(=O)(=O)c2nc(-c3ccccc3)cc(C(F)(F)F)n2)no1 [Compound 7979496]
pIC50 [1, 3]: 4.84 | pIC50 [2, 4]: 5.04

CCOC(=O)CS(=O)(=O)c1nc(-c2ccc(F)cc2)cc(C(F)(F)F)n1 [Compound 7979975]
IC50 ([1]; Tables 7-8): 1.98 µM and 1.27 µM and 0.695 µM and 1.72 µM and 0.866 µM and 3.33 µM and 4.4 µM and 6.43 µM | pIC50 [2, 4]: 5.75 | IC50 ([2]; Tables 7-8): 1.37 µM and 0.59 µM and 1.5 µM and 2.79 µM and 1.03 µM and 3.41 µM

COc1ccccc1-c1cc(C(F)(F)F)nc(S(=O)(=O)CCCC(=O)N2CCOCC2)n1 [Compound 7990929]
pIC50 [1, 3]: 4.67 | pIC50 [2, 4]: 4.72

COc1ccccc1-c1cc(C(F)(F)F)nc(S(=O)(=O)CCCC(=O)NC(C)C)n1 [Compound C071-0355]
Bfl-1 FPA IC50 (uM) [1, 5]: nodisplacement | Bfl-1 TR-FRET IC50 (uM) [2, 5]: nodisplacement

COc1ccccc1-c1cc(C(F)(F)F)nc(S(=O)(=O)CCCC(=O)N2CCCCC2C)n1 (centres unmarked) [Compound C071-0367]
pIC50 [1, 3]: 4.83 | pIC50 [2, 4]: 4.89

COc1ccccc1-c1cc(C(F)(F)F)nc(S(=O)(=O)CCCC(=O)Nc2cc(C)on2)n1 [Compound C071-0415]
Bfl-1 FPA IC50 (uM) [1, 5]: nodisplacement | Bfl-1 TR-FRET IC50 (uM) [2, 5]: nodisplacement

Cc1cc(NC(=O)CCCS(=O)(=O)c2nc(-c3cccs3)cc(C(F)(F)F)n2)no1 [Compound C071-0649]
pIC50 [1, 3]: 4.39 | pIC50 [2, 4]: 4.94

CS(=O)(=O)c1nc(-c2ccccc2)cc(C(F)(F)F)n1 [Compound C164-0003]
Bfl-1 FPA IC50 (uM) [1, 5]: nodisplacement | Bfl-1 TR-FRET IC50 (uM) [2, 5]: nodisplacement

CS(=O)(=O)c1nc(-c2cccs2)cc(C(F)(F)F)n1 [Compound C164-0005]
pIC50 [1, 3]: 5.20 | pIC50 [2, 4]: 4.81

CS(=O)(=O)c1nc(-c2ccco2)cc(C(F)(F)F)n1 [Compound C164-0006]
pIC50 [1, 3]: 5.14 | pIC50 [2, 4]: 5.22

COc1ccc(-c2cc(C(F)(F)F)nc(S(C)(=O)=O)n2)c(OC)c1 [Compound C164-0014]
pIC50 [1, 3]: 4.60 | IC50 ([1]; Tables 7-8): 40.7 µM and 5.92 µM and 27.2 µM and 28.8 µM and 22.9 µM | pIC50 [2, 4]: 5.20 | IC50 ([2]; Tables 7-8): 5.29 µM and 3.73 µM and 10.1 µM

CN1CCN(C2=CC(=O)N(c3ccc(Cl)cc3)C2=O)CC1 [MLS-0066987]
Bfl-1 FP assay, activity in words [1]: inactive | Bfl-1 TR-FRET assay, activity in words [2]: inactive

O=C1C(Cl)=C(N2CCCCC2)C(=O)N1c1ccc(Cl)c(Cl)c1 [MLS-0066990]
Bfl-1 FP IC50 (uM) ([1]; Tables 3-5): no fit | pIC50 [2, 6]: 5.89

CN1CCN(C2CC(=O)N(c3ccc(Cl)c(Cl)c3)C2=O)CC1 (centres unmarked) [MLS-0066991]
Bfl-1 FP assay, activity in words [1]: inactive | Bfl-1 TR-FRET assay, activity in words [2]: inactive

O=C1C(Cl)=C(N2CCOCC2)C(=O)N1c1ccc(Cl)c(Cl)c1 [MLS-0067124]
pIC50 [1, 7]: 5.85 | pIC50 ([1]; text b265, read-out: IC50 in the FP assay): 5.85 | pIC50 ([2]; text b265, read-out: IC50 in the TR-FRET assay): 5.94

O=C1C(Cl)=C(N2CCCC2)C(=O)N1c1ccc(Cl)c(Cl)c1 [MLS-0067126]
Bfl-1 FP IC50 (uM) ([1]; Tables 3-5): no fit | Bfl-1 TR FRET IC50 (uM) ([2]; Tables 3-5): no fit

COCCNC1=C(Cl)C(=O)N(c2ccc(Cl)c(Cl)c2)C1=O [MLS-0067127]
pIC50 [1, 7]: 4.90 | pIC50 [2, 6]: 5.30

O=C1C(Cl)=C(Nc2ccccc2)C(=O)N1c1ccc(Cl)c(Cl)c1 [MLS-0067128]
Bfl-1 FP IC50 (uM) ([1]; Tables 3-5): no fit | Bfl-1 TR FRET IC50 (uM) ([2]; Tables 3-5): no fit

CN1CCN(C2=C(Cl)C(=O)N(c3cc(Cl)cc(Cl)c3)C2=O)CC1 [MLS-0090828]
pIC50 [1, 7]: 5.61 | pIC50 [2, 6]: 5.78

CN1CCN(C2=C(Cl)C(=O)N(c3ccc(Cl)cc3Cl)C2=O)CC1 [MLS-0090829]
pIC50 [1, 7]: 5.58 | pIC50 [2, 6]: 5.87
